Data on three molecules can be found in BindingDB's records for doi:10.1021/acs.jmedchem.9b00359 (Shandong University, 2019).

Broadly, the pEC50 is the EC50 on a negative log10 scale, so that one unit is a factor of ten.

pEC50: −log10 of the molar value.

The nature of the experiment: Inhibition of HIV1 reverse transcriptase p66/p51 K103N/Y181C mutant infected in human MT2 cells assessed as reduction in viral infection incubated for 5 days.
In the case of `Cc1c(Oc2ccccc2OCCn2ccc(=O)[nH]c2=O)cc(N(C)C(=O)CF)c2ccc(C#N)cc12`, the pEC50 is 4.82.
In the case of `C=CC(=O)N(C)c1cc(Oc2ccccc2OCCn2ccc(=O)[nH]c2=O)c(C)c2cc(C#N)ccc12` it was 6.30; in that of `C=CC(=O)Nc1cc(Oc2ccccc2OCCn2ccc(=O)[nH]c2=O)c(C)c2cc(C#N)ccc12`, below 4.92.
